Measured values reported in US6737383B1, “Herbicidal oxadiazolidines” (priority 1999, dated 2004).

How the values were obtained:
bedstraw = assay: Test B pre/postemergence bedstraw; type: in vivo, Galium aparine
Outline: (§1)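 Herbicidal effect was estimated by eye on a ten-point control scale after plants spent twelve to sixteen days in a greenhouse following soil or foliar treatment. Foliar sprays targeted plants at one to four leaves; all doses were formulated in a non-phytotoxic solvent with surfactant.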

blackgrass = assay: Test B pre/postemergence blackgrass; type: in vivo, Alopecurus myosuroides
Outline: as §1

surinam grass = assay: Test B pre/postemergence surinam grass; type: in vivo, Brachiaria decumbens
Outline: as §1

cocklebur = assay: Test B pre/postemergence cocklebur; type: in vivo, Xanthium strumarium
Outline: as §1

corn = assay: Test B pre/postemergence corn; type: in vivo, Zea mays
Outline: as §1

crabgrass = assay: Test B pre/postemergence crabgrass; type: in vivo, Digitaria sanguinalis
Outline: as §1

rape = assay: Test B pre/postemergence rape; type: in vivo, Brassica napus
Outline: as §1

soybean = assay: Test B pre/postemergence soybean; type: in vivo, Glycine max
Outline: as §1

sugar beet = assay: Test B pre/postemergence sugar beet; type: in vivo, Beta vulgaris; conditions: for Plant response rating, Sugarbeets: Rate 250 g/ha
Outline: as §1

velvetleaf = assay: Test B pre/postemergence velvetleaf; type: in vivo, Abutilon theophrasti; conditions: for Plant response rating, Velvetleaf: Rate 250 g/ha
Outline: as §1

wheat = assay: Test B pre/postemergence wheat; type: in vivo, Triticum aestivum; conditions: for Plant response rating, Wheat: Rate 250 g/ha
Outline: as §1

wild oat = assay: Test B pre/postemergence wild oat; type: in vivo, Avena fatua; conditions: for Plant response rating, Wild oats: Rate 250 g/ha
Outline: as §1

purple nutsedge = assay: Test B pre/postemergence purple nutsedge; type: in vivo, Cyperus rotundus
Outline: as §1

rice = assay: Test B flood test rice; type: in vivo, Oryza sativa
Outline: (§2)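 Each value is a visual injury score relative to controls, with 10 meaning complete control and 0 no effect. Evaluation took place twelve to sixteen days after the 2-leaf-stage plants were treated and kept in the greenhouse.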

smallflower flatsedge = assay: Test B flood test smallflower flatsedge; type: in vivo, Cyperus difformis
Outline: as §2

duck salad = assay: Test B flood test duck salad; type: in vivo, Heteranthera limosa
Outline: as §2

bamyardgrass = assay: Test B flood test barnyardgrass; type: in vivo, Echinochloa crus-galli
Outline: as §2

[1] = Preemergence, Rate 62 g/ha, scale 0 to 10 (0 no effect, 10 complete control)
[2] = Preemergence, Rate 125 g/ha, scale 0 to 10 (0 no effect, 10 complete control)
[3] = Preemergence, Rate 250 g/ha, scale of 0 to 10 where 0 is no effect and 10 is complete control
[4] = Preemergence, Rate 500 g/ha, scale 0 (no effect) to 10 (complete control)
[5] = Rate 500 g/ha, Postemergence, scale 0 to 10, 0 no effect, 10 complete control
[6] = Postemergence, Rate 62 g/ha, scale 0 to 10, 0 is no effect, 10 is complete control
[7] = Postemergence, Rate 125 g/ha, scale of 0 to 10 where 0 is no effect and 10 is complete control
[8] = Postemergence, Rate 250 g/ha, scale 0 to 10, 0 no effect, 10 complete control
[9] = Preemergence, Rate 125 g/ha, 0 is no effect, 10 is complete control
[10] = Preemergence, scale of 0 to 10 where 0 is no effect and 10 is complete control
[11] = Postemergence, scale 0 to 10, 0 is no effect, 10 is complete control
[12] = Postemergence (flood test species), Rate 125 g/ha, scale of 0 to 10 where 0 is no effect and 10 is complete control
[13] = Rate 250 g/ha, Postemergence (flood test), scale 0 to 10, 0 is no effect, 10 is complete control
[14] = Rate 250 g/ha, headed Pre-emergence (flood test species), scale 0 to 10 (0 no effect, 10 complete control)
[15] = Rate 500 g/ha, headed Pre-emergence (flood test species), scale 0 to 10 (0 no effect, 10 complete control)
[16] = Rate 500 g/ha, listed under Postemergence (flood test species), scale 0 to 10, 0 no effect, 10 complete control
[17] = Rate 1000 g/ha, Pre-emergence (as headed), scale 0 to 10
[18] = Rate 2000 g/ha, Pre-emergence (as headed), scale 0 to 10
[19] = flood test, listed under Postemergence, Rate 250 g/ha, scale 0 to 10, 0 no effect, 10 complete control

C=CCn1c(=O)on(C(=O)N(c2ccccc2)C(C)C)c1=O [Compound 93]
5: B. signalgrass plant response rating (surinam grass; Rate 125 g/ha, Postemergence, scale 0 to 10, 0 no effect, 10 complete control) | Corn plant response rating (corn; [8]) | Corn plant response rating (corn; [5]) | Rape plant response rating (rape; [5]) | Soybean plant response rating (soybean; [7]) | Plant response rating, Soybean (soybean; Rate 250 g/ha, Postemergence, scale 0 to 10, 0 is no effect, 10 is complete control) | Sugarbeets plant response rating (sugar beet; [5]) | Velvetleaf plant response rating (velvetleaf; [1]) | Wheat plant response rating (wheat; [5]) | Wild oats plant response rating (wild oat; [5])
3: Bedstraw plant response rating (bedstraw; [4]) | B. signalgrass plant response rating (surinam grass; [6]) | Corn plant response rating (corn; [6]) | Corn plant response rating (corn; [1]) | Rape plant response rating (rape; [7]) | Rape plant response rating (rape; [1]) | Sugarbeets plant response rating (sugar beet; [7]) | Plant response rating, Sugarbeets (sugar beet; [11]) | Wheat plant response rating (wheat; [7]) | Wheat plant response rating (wheat; [1]) | Wheat plant response rating (0 to 10 scale) (wheat; [9]) | Nutsedge plant response rating (purple nutsedge; [5])
7: Bedstraw plant response rating (bedstraw; [5]) | Blackgrass plant response rating (blackgrass; [6]) | Plant response rating, B. signalgrass (surinam grass; [2]) | Plant response rating, Corn (corn; [2]) | Crabgrass plant response rating (crabgrass; [6]) | Crabgrass plant response rating (crabgrass; [1]) | Plant response rating, Rape (rape; [2]) | Plant response rating, Soybean (soybean; [3]) | Soybean plant response rating (soybean; [5]) | Sugarbeets plant response rating (0 to 10 scale) (sugar beet; [9])
1: Cocklebur plant response rating (cocklebur; [7])
9: Blackgrass plant response rating (blackgrass; [1]) | B. signalgrass plant response rating (surinam grass; Rate 500 g/ha, Postemergence, scale of 0 to 10 where 0 is no effect and 10 is complete control) | Corn plant response rating (corn; [4]) | Crabgrass plant response rating (crabgrass; [8]) | Plant response rating, Crabgrass (crabgrass; [2]) | Plant response rating, Crabgrass (crabgrass; [3]) | Crabgrass plant response rating (crabgrass; [5]) | Soybean plant response rating (soybean; [4]) | Sugarbeets plant response rating (sugar beet; [4])
6: Sugarbeets plant response rating (sugar beet; [1]) | Velvetleaf plant response rating (0 to 10 scale) (velvetleaf; [9]) | Plant response rating, Velvetleaf (velvetleaf; [10]) | Velvetleaf plant response rating (velvetleaf; [5]) | Plant response rating, Wheat (wheat; [10]) | S. Flatsedge plant response rating (smallflower flatsedge; [16])
8: Blackgrass plant response rating (blackgrass; [7]) | Blackgrass plant response rating (blackgrass; [8]) | Blackgrass plant response rating (blackgrass; [5]) | B. signalgrass plant response rating (surinam grass; [8]) | B. signalgrass plant response rating (surinam grass; [4]) | Plant response rating, Corn (corn; [3]) | Crabgrass plant response rating (crabgrass; [7]) | Plant response rating, Rape (rape; [3]) | Plant response rating, Sugarbeets (sugar beet; [10]) | Wheat plant response rating (wheat; [4]) | Wild oats plant response rating (wild oat; [1]) | Wild oats plant response rating (0 to 10 scale) (wild oat; [9])
0: Bedstraw plant response rating (bedstraw; [1]) | Plant response rating, Bedstraw (bedstraw; [2]) | Plant response rating, Bedstraw (bedstraw; [3]) | Cocklebur plant response rating (cocklebur; [6]) | Soybean plant response rating (soybean; [1]) | Velvetleaf plant response rating (velvetleaf; [6]) | Velvetleaf plant response rating (velvetleaf; [7]) | Plant response rating, Velvetleaf (velvetleaf; [11]) | Wheat plant response rating (wheat; [6]) | Wild oats plant response rating (wild oat; [6]) | Wild oats plant response rating (wild oat; [7]) | Nutsedge plant response rating (purple nutsedge; [6]) | Nutsedge plant response rating (purple nutsedge; [7]) | Nutsedge plant response rating (purple nutsedge; [8]) | Nutsedge plant response rating (purple nutsedge; [1]) | Plant response rating, Nutsedge (purple nutsedge; [2]) | Plant response rating, Nutsedge (purple nutsedge; [3]) | Rice plant response rating (rice; [12]) | Rice plant response rating (rice; [6]) | Plant response rating, Rice (rice; [13]) | Rice plant response rating (rice; [14]) | Plant response rating, Rice (rice; [15]) | Rice plant response rating (rice; [17]) | Rice plant response rating (rice; [18]) | S. Flatsedge plant response rating (smallflower flatsedge; [12]) | S. Flatsedge plant response rating (smallflower flatsedge; [6]) | S. Flatsedge plant response rating (smallflower flatsedge; Pre-emergence, Rate 1000 g/ha, scale 0 to 10 (0 no effect, 10 complete control)) | Plant response rating, S. Flatsedge (smallflower flatsedge; [13]) | S. Flatsedge plant response rating (smallflower flatsedge; [14]) | Plant response rating, S. Flatsedge (smallflower flatsedge; [15]) | S. Flatsedge plant response rating (smallflower flatsedge; [18]) | Ducksalad plant response rating (duck salad; [12]) | Ducksalad plant response rating (duck salad; [6]) | Ducksalad plant response rating (duck salad; [14]) | Plant response rating, Ducksalad (duck salad; [15]) | Ducksalad plant response rating (duck salad; [16]) | Ducksalad plant response rating (duck salad; [17]) | Ducksalad plant response rating (duck salad; [18]) | Ducksalad plant response rating (duck salad; [19]) | Barnyardgrass plant response rating (bamyardgrass; [6]) | Barnyardgrass plant response rating (bamyardgrass; Rate 125 g/ha, Postemergence section (flood test species), scale 0 to 10, 0 no effect, 10 complete control) | Barnyardgrass plant response rating (bamyardgrass; [14]) | Plant response rating, Barnyardgrass (bamyardgrass; [15]) | Barnyardgrass plant response rating (bamyardgrass; [16]) | Barnyardgrass plant response rating (bamyardgrass; [17]) | Barnyardgrass plant response rating (bamyardgrass; Rate 2000 g/ha, Pre-emergence (as headed), scale 0 to 10, 0 no effect, 10 complete control) | Barnyardgrass plant response rating (bamyardgrass; [19])
10: Plant response rating, Blackgrass (blackgrass; [2]) | Plant response rating, Blackgrass (blackgrass; [3]) | Blackgrass plant response rating (blackgrass; [4]) | Crabgrass plant response rating (crabgrass; [4]) | Rape plant response rating (rape; [4]) | Velvetleaf plant response rating (velvetleaf; [4]) | Plant response rating, Wild oats (wild oat; [10]) | Wild oats plant response rating (wild oat; [4])
4: Cocklebur plant response rating (cocklebur; [5]) | Corn plant response rating (corn; [7]) | Rape plant response rating (rape; [8]) | Soybean plant response rating (soybean; [6]) | Plant response rating, Wheat (wheat; [11]) | Rice plant response rating (rice; [16])
2: Cocklebur plant response rating (cocklebur; [8]) | Cocklebur plant response rating (cocklebur; [1]) | Plant response rating, Cocklebur (cocklebur; [2]) | Rape plant response rating (rape; [6]) | Plant response rating, Soybean (soybean; [2]) | Sugarbeets plant response rating (sugar beet; [6]) | Plant response rating, Wild oats (wild oat; [11])
